Results as given in patent publication US20100160386A1, “4-PHENOXY-NICOTINE ACID DERIVATIVES AND USE THEREOF AS PPAR-MODULATORS” (BAYER SCHERING PHARMA AKTIENGESELLSCHAFT, priority 2006, published 2010).

The molecules below were run against T1, human PPARα-receptor (Homo sapiens, UniProt Q07869) (assay: Cellular transactivation assay (GAL4-PPARα chimera, luciferase reporter in CHO cells)). Settings: CHO cells stably expressing GAL4-PPARα chimera and luciferase reporter; stimulation time 6 h.
T1 construct: expressed in transfected cells
T1 sequence (Q07869 167-468): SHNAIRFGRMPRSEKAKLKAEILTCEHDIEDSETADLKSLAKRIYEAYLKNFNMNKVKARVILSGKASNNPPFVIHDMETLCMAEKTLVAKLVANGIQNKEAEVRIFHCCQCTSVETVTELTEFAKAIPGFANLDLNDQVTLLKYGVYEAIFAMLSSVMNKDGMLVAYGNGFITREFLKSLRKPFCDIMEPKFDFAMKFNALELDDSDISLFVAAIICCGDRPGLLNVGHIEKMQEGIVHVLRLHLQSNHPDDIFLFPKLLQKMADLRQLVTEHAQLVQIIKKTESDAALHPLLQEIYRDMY
Type: cell-based
Description: A cellular assay is used to identify activators of the peroxisome proliferator-activated receptor alpha (PPAR-alpha).
Since mammalian cells contain different endogenous nuclear receptors which can complicate unambiguous interpretation of the results, an established chimera system is used, in which the ligand binding domain of the human PPARα-receptor is fused to the DNA binding domain of the yeast transcription factors GAL4. The GAL4-PPARα chimera thus formed is co-transfected and expressed stably in CHO cells with a reporter construct.
The GAL4-PPARα expression construct contains the ligand binding domain of PPARα (amino acids 167-468), which is PCR-amplified and cloned into the vector pcDNA3.1. This vector already contains the GAL4 DNA binding domain (amino acids 1-147) of the vector pFC2-dbd (Stratagene). The reporter construct, which contains five copies of the GAL4 binding site upstream of a thymidine kinase promoter, leads to the expression of firefly luciferase (Photinus pyralis) after activation and binding of GAL4-PPARα.
The day before the test, CHO (Chinese hamster ovary) cells which stably express the above-described GAL4-PPARα chimera and luciferase reporter gene construct are plated out in 96-hole microtiter plates with 1×10^3 cells in medium (Optimem, GIBCO), 2% activated carbon-purified fetal calf serum (Hyclone), 1.35 mM sodium pyruvate (GIBCO), 0.2% sodium bicarbonate (GIBCO), and kept in a cell incubator (air humidity 96%, 5% v/v CO2, 37° C.). On the day of the test, the substances to be tested are taken up in abovementioned medium, but without addition of calf serum, and added to the cells. After a stimulation time of 6 h, the luciferase activity is measured with the aid of a video camera. The relative light units measured give a sigmoid stimulation curve as a function of the substance concentration. The EC50 values are calculated with the aid of the computer program GraphPad PRISM (Version 3.02).

**Q.** With `Cc1ccc(-c2cc(Oc3ccccc3Cl)c(C(=O)O)cn2)cc1F` [Example 1, 4-(2-Chlorophenoxy)-6-(3-fluoro-4-methylphenyl)nicotinic acid] as the molecule, how does the EC50 read?
**A.** 59 nM

**Q.** How did the EC50 turn out when `COc1ccc(Cl)c(Oc2cc(-c3cc(F)cc(F)c3)ncc2C(=O)O)c1` [Example 7, 4-(2-Chloro-5-methoxyphenoxy)-6-(3,5-difluorophenyl)nicotinic acid] was run?
**A.** 200 nM

**Q.** How did the EC50 turn out when `COc1ccc(Oc2cc(-c3ccc(C)c(F)c3)ncc2C(=O)O)c(Cl)c1` [Example 9, 4-(2-Chloro-4-methoxyphenoxy)-6-(3-fluoro-4-methylphenyl)nicotinic acid] was run?
**A.** 235 nM
